Measured values taken from ChEMBL document CHEMBL5346906, “Discovery of novel tranylcypromine-based derivatives as LSD1 inhibitors for gastric cancer treatment” (Eur J Med Chem, 2023).
Calls of active or inactive are those of the source. The rule behind the calls is not given here.

Key:
MGC-803 [1] = test: Induction of apoptosis in human MGC-803 cells assessed as necrotic cells at 8 micromol/L for 48 hrs by annexinV-FITC/PI staining based flow cytometric analysis (reference value: 0.22%); type: functional; conditions: dose 8 µmol/L, at 8 µM
MGC-803 [2] = test: Induction of apoptosis in human MGC-803 cells assessed as late apoptotic cells at 16 micromol/L for 48 hrs by annexinV-FITC/PI staining based flow cytometric analysis (reference value: 1.32%); type: functional; conditions: dose 16 µmol/L, at 16 µM
MGC-803 [3] = test: Induction of apoptosis in human MGC-803 cells assessed as morphological change in cell nucleus incubated at 8 to 24 micromol/L for 48 hrs measured by Giemsa staining based microscopic analysis; type: functional; conditions: dose 8-24 µmol/L
MGC-803 [4] = test: Induction of mitochondrial membrane potential depolarization in human MGC-803 assessed as viable cells measured at 16 micromol/L for 20 mins by JC-1 staining based flow cytometric analysis (reference value: 0.40%); type: functional; conditions: MGC-803, 20 min, dose 16 µmol/L, read-out: Activity
MGC-803 [5] = test: Induction of mitochondrial membrane potential depolarization in human MGC-803 assessed as viable cells measured at 8 micromol/L for 20 mins by JC-1 staining based flow cytometric analysis (reference value: 0.40%); type: functional; conditions: MGC-803, 20 min, dose 8 µmol/L, read-out: Activity
[6] = biological target: T1, Lysine-specific histone demethylase 1A (Homo sapiens, UniProt O60341); test: Inhibition of LSD1 in human MGC-803 cells assessed as increase in mono methylation of H3K9; type: cell-based; conditions: dose 0-24 µmol/L
MGC-803 [7] = test: Induction of cell differentiation in human MGC-803 cells assessed as increase in CD86 level at 24 micromol/L incubated for 48 hrs by flow cytometric analysis (reference value: 60%); type: functional; conditions: dose 24 µmol/L, at 24 µM
MGC-803 [8] = test: Antiproliferative activity against human MGC-803 cells incubated for 48 hrs measured by MTT assay; type: functional, cell-based; conditions: MGC-803, 48 h
MGC-803 [9] = test: Induction of apoptosis in human MGC-803 cells assessed as morphological change of cells incubated at 8 to 24 micromol/L for 48 hrs measured by bright field microscopic analysis; type: functional, cell-based; conditions: dose 8-24 µmol/L
MGC-803 [10] = test: Induction of apoptosis in human MGC-803 cells assessed as decrease in capase9 expression at 8 to 24 micromol/L; type: functional, cell-based; conditions: dose 8-24 µmol/L
[11] = biological target: T1, Lysine-specific histone demethylase 1A; test: Inhibition of LSD1 in human MGC-803 cells assessed as increase in dimethylation of H3K4; type: cell-based; conditions: dose 0-24 µmol/L
MGC-803 [12] = test: Antiproliferative activity against human MGC-803 cells assessed as reduction in stemness of cells by measuring tumor ball diameter at 0 to 8 uM after 48 hrs measured after 5 days using 3D-spheroid assay; type: functional, cell-based; conditions: dose 0-8 µM
MGC-803 [13] = test: Induction of mitochondrial membrane potential depolarization in human MGC-803 assessed as early apoptotic cells measured at 24 micromol/L for 20 mins by JC-1 staining based flow cytometric analysis (reference value: 4.52%); type: functional; conditions: dose 24 µmol/L, at 24 µM
KYSE-450 = test: Antiproliferative activity against human KYSE-450 cells incubated for 48 hrs measured by MTT assay; type: functional, cell-based; conditions: KYSE-450, 48 h
MGC-803 [14] = test: Induction of apoptosis in human MGC-803 cells assessed as necrotic cells at 24 micromol/L for 48 hrs by annexinV-FITC/PI staining based flow cytometric analysis (reference value: 0.22%); type: functional; conditions: dose 24 µmol/L, at 24 µM
MGC-803 [15] = test: Induction of apoptosis in human MGC-803 cells assessed as late apoptotic cells at 8 micromol/L for 48 hrs by annexinV-FITC/PI staining based flow cytometric analysis (reference value: 1.32%); type: functional; conditions: dose 8 µmol/L, at 8 µM
MGC-803 [16] = test: Induction of cell differentiation in human MGC-803 cells assessed as decrease in nucleoplasmic ratio of cells incubated for 6 days measured by Giemsa staining method; type: functional, cell-based; conditions: dose 2-4 µmol/L, time 6.0 day
MGC-803 [17] = test: Induction of mitochondrial membrane potential depolarization in human MGC-803 assessed as late apoptotic cells measured at 16 micromol/L for 20 mins by JC-1 staining based flow cytometric analysis (reference value: 94.98%); type: functional; conditions: dose 16 µmol/L, at 16 µM
MGC-803 [18] = test: Induction of apoptosis in human MGC-803 cells assessed as decrease in capase3 expression at 8 to 24 micromol/L; type: functional, cell-based; conditions: dose 8-24 µmol/L
MGC-803 [19] = test: Induction of apoptosis in human MGC-803 cells assessed as necrotic cells at 16 micromol/L for 48 hrs by annexinV-FITC/PI staining based flow cytometric analysis (reference value: 0.22%); type: functional; conditions: dose 16 µmol/L, at 16 µM
MGC-803 [20] = test: Inhibition of cell migration in human MGC-803 cells assessed as scratch width decrease treated at 2 to 6 micromol/L for 24 to 48 hrs measured by wound healing assay; type: functional, cell-based; conditions: dose 2-6 µmol/L, time 24-48 hrs
MGC-803 [21] = test: Induction of apoptosis in human MGC-803 cells assessed as viable cells at 8 micromol/L for 48 hrs by annexinV-FITC/PI staining based flow cytometric analysis (reference value: 95.54%); type: functional; conditions: MGC-803, 48 h, dose 8 µmol/L, read-out: Activity
[22] = biological target: T2, Amine oxidase [flavin-containing] A (Homo sapiens, UniProt P21397); test: Inhibition of MAO-A (unknown origin) measured by MAO-GloTM method
T2 sequence (P21397 whole entry): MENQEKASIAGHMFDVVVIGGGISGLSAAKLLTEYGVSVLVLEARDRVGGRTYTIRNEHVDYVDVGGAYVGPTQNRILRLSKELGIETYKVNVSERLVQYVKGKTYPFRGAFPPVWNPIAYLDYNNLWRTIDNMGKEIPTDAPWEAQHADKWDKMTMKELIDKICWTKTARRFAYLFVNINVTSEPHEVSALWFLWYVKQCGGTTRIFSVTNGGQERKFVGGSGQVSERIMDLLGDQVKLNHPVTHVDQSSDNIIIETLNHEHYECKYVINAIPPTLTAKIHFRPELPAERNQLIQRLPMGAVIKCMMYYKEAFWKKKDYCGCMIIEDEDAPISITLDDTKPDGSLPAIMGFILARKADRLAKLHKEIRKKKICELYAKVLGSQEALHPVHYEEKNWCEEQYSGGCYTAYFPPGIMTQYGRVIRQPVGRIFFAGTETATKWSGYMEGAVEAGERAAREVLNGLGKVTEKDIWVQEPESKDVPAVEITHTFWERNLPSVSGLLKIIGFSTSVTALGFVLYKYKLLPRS

MGC-803 [23] = test: Induction of apoptosis in human MGC-803 cells assessed as early apoptotic cells at 24 micromol/L for 48 hrs by annexinV-FITC/PI staining based flow cytometric analysis (reference value: 2.92%); type: functional; conditions: dose 24 µmol/L, at 24 µM
MGC-803 [24] = test: Induction of apoptosis in human MGC-803 cells assessed as viable cells at 24 micromol/L for 48 hrs by annexinV-FITC/PI staining based flow cytometric analysis (reference value: 95.54%); type: functional; conditions: MGC-803, 48 h, dose 24 µmol/L, read-out: Activity
MGC-803 [25] = test: Antiproliferative activity against human MGC-803 cells assessed as reduction in stemness of cells by measuring tumor ball diameter at 0 to 8 uM after 48 hrs measured after 10 days using 3D-spheroid assay; type: functional, cell-based; conditions: dose 0-8 µM
MGC-803 [26] = test: Induction of mitochondrial membrane potential depolarization in human MGC-803 assessed as viable cells measured at 24 micromol/L for 20 mins by JC-1 staining based flow cytometric analysis (reference value: 0.40%); type: functional; conditions: MGC-803, 20 min, dose 24 µmol/L, read-out: Activity

In the case of `O=C(c1cccc(CN[C@@H]2C[C@H]2c2ccc(F)c(F)c2)c1)N1CCN(c2ccc(Cl)c(Cl)c2)CC1`, the Activity (MGC-803 [1]) is reported as 0.32%, the Activity (MGC-803 [2]) is reported as 10.43% and the Activity (MGC-803 [3]) is reported as “Active”. For the same compound, the viability at 16 µM (MGC-803 [4]) was 1.34%, the viability at 8 µM (MGC-803 [5]) was 0.52% and the inhibition [6] was “Dose-Dependent Effect”. The Activity (MGC-803 [7]) was 74.6%, the IC50 (MGC-803 [8]) was 14.3 µM and the Activity (MGC-803 [9]) was “Active”. For the same compound, the Activity (MGC-803 [10]) was “Active”, the inhibition [11] was “Dose-Dependent Effect” and the Activity (MGC-803 [12]) was “inactive”. For the same compound, the Activity (MGC-803 [13]) was 29.22%, the IC50 (KYSE-450) was 22.8 µM and the Activity (MGC-803 [14]) was 0.38%. The Activity (MGC-803 [15]) was 2.76%, the Activity (MGC-803 [16]) was “Dose-Dependent Effect” and the Activity (MGC-803 [17]) was 81%. The Activity (MGC-803 [18]) was “Active”, the Activity (MGC-803 [19]) was 0.35% and the inhibition (MGC-803 [20]) was “Active”. It also gave a viability at 8 µM (MGC-803 [21]) of 91%, an IC50 [22] of 1.23 µM and an Activity (MGC-803 [23]) of 37.89%. The viability at 24 µM (MGC-803 [24]) was 51.8%, the Activity (MGC-803 [25]) was “Active” and the viability at 24 µM (MGC-803 [26]) was 1.28%.
